The text below walks through data of PMC9007595 (Molecular microbiology, 2020).

In one data set the target is T1, Mtb HtpG (Mycobacterium tuberculosis, UniProt P9WMJ7).
T1 sequence (P9WMJ7 1-647): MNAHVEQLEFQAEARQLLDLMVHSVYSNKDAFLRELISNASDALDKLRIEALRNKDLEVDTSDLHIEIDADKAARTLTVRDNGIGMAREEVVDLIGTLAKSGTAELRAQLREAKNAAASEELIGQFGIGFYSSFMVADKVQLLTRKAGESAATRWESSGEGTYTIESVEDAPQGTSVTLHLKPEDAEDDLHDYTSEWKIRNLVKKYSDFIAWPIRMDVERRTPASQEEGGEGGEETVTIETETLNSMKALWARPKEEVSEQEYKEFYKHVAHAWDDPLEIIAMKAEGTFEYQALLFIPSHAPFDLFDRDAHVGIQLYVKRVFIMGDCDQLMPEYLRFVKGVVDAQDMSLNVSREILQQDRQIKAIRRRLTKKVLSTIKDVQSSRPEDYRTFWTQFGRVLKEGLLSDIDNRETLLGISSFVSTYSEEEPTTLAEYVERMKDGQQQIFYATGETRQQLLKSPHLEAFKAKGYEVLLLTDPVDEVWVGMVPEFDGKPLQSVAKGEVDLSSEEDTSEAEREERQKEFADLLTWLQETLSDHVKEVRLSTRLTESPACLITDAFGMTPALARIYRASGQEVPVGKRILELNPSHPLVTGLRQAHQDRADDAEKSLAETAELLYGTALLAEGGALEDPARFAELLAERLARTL
In words: […]. In kind it is binding.

Data set [1] deals with yeast Hsp90 (S. cerevisiae Hsp82) (Saccharomyces cerevisiae, UniProt P02829). Put plainly: ATPase activity assay with purified protein. In kind it is biochemical.
Chain of yeast Hsp90 (S. cerevisiae Hsp82) (P02829 whole entry): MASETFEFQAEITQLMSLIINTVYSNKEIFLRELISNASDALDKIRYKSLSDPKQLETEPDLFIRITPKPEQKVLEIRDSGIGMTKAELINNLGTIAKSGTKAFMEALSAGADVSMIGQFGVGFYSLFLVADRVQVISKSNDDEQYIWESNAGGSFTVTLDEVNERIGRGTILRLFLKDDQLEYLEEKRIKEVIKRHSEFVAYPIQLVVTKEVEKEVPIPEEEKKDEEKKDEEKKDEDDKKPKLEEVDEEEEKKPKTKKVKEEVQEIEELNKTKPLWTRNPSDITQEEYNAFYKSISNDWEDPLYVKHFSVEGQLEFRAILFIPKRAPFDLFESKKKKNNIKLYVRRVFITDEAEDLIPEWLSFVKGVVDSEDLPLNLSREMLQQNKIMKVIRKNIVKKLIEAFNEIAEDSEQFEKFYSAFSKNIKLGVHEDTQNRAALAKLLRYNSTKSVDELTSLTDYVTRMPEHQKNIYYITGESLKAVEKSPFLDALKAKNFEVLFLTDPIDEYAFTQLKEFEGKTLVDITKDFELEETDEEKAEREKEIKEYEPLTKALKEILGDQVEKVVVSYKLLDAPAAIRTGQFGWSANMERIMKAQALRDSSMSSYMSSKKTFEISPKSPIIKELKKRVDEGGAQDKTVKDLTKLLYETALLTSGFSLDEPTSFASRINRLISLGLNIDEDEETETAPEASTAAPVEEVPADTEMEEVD
The data set “SEC” concerns the molecule itself. Put plainly: SEC. A general note: Size exclusion chromatography separates by hydrodynamic size, large species first.

Broadly, the Kd is a measure of binding affinity in units of concentration. Read a low Kd as a tighter complex.

In the case of `COC1=C2C[C@@H](C)C[C@H](OC)[C@H](O)[C@@H](C)/C=C(\C)[C@H](OC(N)=O)[C@@H](OC)/C=C\C=C(/C)C(=O)NC(=CC1=O)C2=O` [GA, geldanamycin], at Mtb HtpG, the Kd was ~15.7 µM. The “ATPase activity assay with purified protein (Figure S19)” value in data set [1] is reported as “Both proteins exhibited low ATPase activity that was inhibited by GA (Figure S19)”.

B1: purified Mtb HtpG (size exclusion chromatography) (natural protein)
chain: T1 sequence (P9WMJ7 1-647)
In the case of B1, the binding result in the data set “SEC” is “binds”.
